Laboratory results taken from article PMC12250628, “Pharmacokinetics of Cannabidiol in Rat Brain Tissue After Single-Dose Administration of Different Formulations” (Molecules, 2025).

Columns and labels:
[1] = Locomotor behavior and cognitive performance of the studied animals after CBD administration; type: in vivo, rat; settings: rats, single oral dose of 10 mg/kg CBD
[2] = parameters: method as in PMID 34330718, PMID 28861484; settings: phase I CBD metabolites; cited from earlier work

| Compound | impact on locomotor behavior and cognitive performance [1] | pharmacological activity [2] |
| --- | --- | --- |
| C=C(C)[C@@H]1CCC(C)=C[C@H]1c1c(O)cc(CCCCC)cc1O [CBD, cannabidiol] | no negative impacts on locomotor behavior and cognitive performance | – |
| C=C(C)[C@@H]1CCC(C(=O)O)=C[C@H]1c1c(O)cc(CCCCC)cc1O [Carrier 7-COOH-CBD, 7-carboxy-cannabidiol] | – | does not exhibit such activity anymore |
| C=C(C)[C@@H]1CCC(CO)=C[C@H]1c1c(O)cc(CCCCC)cc1O [Carrier 7-OH-CBD, 7-hydroxy-cannabidiol] | – | pharmacologically active |
